Consider one molecule from ChEMBL document CHEMBL5357004 (J Nat Prod, 2024).

The source made the active and inactive calls. The rule behind the calls is not given here.

Data set [1] can be described thus: Cytotoxicity against C57BL6/J mouse brown Preadipocyte assessed as decrease in cell viability > 8 uM measured for 24 hrs by trypan blue staining based hemocytometer analysis. The data set is classed as toxicity.
A short description of data set [2]: Cytotoxicity against C57BL6/J mouse brown Preadipocyte assessed as decrease in cell viability at 4 uM measured for 24 hrs by trypan blue staining based hemocytometer analysis. The data set is classed as toxicity.
Data set [3] is described as follows: Inhibition of adipogenic differentiation in C57BL/6J mouse brown Preadipocyte assessed as reduction in neutral lipid content at 4 uM by Oil Red O staining based light microscopy. It is filed as functional.
Data set [4] in a line: Effect on Pparg1 mRNA level in mouse Adipocyte by qRT-PCR analysis. The data set is classed as functional. On the technique in general: Quantitative PCR measures a nucleic acid by following its amplification.
The nature of data set [5]: Effect on Pparg2 mRNA level in mouse Adipocyte by qRT-PCR analysis. It is filed as functional.
Data set [6] is described as follows: Effect on CEBPA mRNA level in mouse Adipocyte by qRT-PCR analysis. It is filed as functional.
Data set [7] in a line: Effect on CEBPB mRNA level in mouse Adipocyte by qRT-PCR analysis. It is filed as functional.
Data set [8] in a line: Downregulation of C/EBPdelta protein expression level in mouse Adipocyte by Western blot analysis. The data set is classed as functional. For orientation: In western blotting, separated proteins are transferred to a membrane and probed.
The test system of data set [9] is Adipocyte. In words: Downregulation of C/EBPalpha protein expression level in mouse Adipocyte by Western blot analysis. It is filed as functional, cell-based.
Data set [10] concerns Adipocyte. In words: Downregulation of C/EBPbeta protein expression level in mouse Adipocyte by Western blot analysis. The data set is classed as functional, cell-based.
The test system of data set [11] is Adipocyte. In words: Downregulation of C/EBPdelta protein expression level in mouse brown Adipocyte by Western blot analysis. The data set is classed as functional, cell-based.
The subject of data set [12] is Adipocyte. In words: Effect on C/EBPdelta mRNA level in mouse brown Adipocyte by qRT-PCR analysis. It is filed as functional, cell-based.
A short description of data set [13]: Effect on CD36 mRNA level in mouse Adipocyte by qRT-PCR analysis. It is filed as functional.
Data set [14] has as its system Adipocyte. Briefly: Potentiation of CL-316243-stimulated mouse Brown adipocyte activation assessed as increase in Ucp1 expression at 4 uM pretreated with compound for 9 hr followed by CL-316243 induction and measured after 8 hrs by qRT-PCR analysis. The data set is classed as functional, cell-based. The note with it: time 17.0 hrs.
In data set [15] the test system is Adipocyte. Briefly: Potentiation of CL-316243-stimulated mouse Brown adipocyte activation assessed as increase in CIDEA mRNA expression at 4 uM pretreated with compound for 9 hr followed by CL-316243 induction and measured after 8 hrs by qRT-PCR analysis. As to conditions: time 17.0 hrs. It is filed as functional, cell-based.
The subject of data set [16] is Adipocyte. In words: Potentiation of CL-316243-stimulated mouse Brown adipocyte activation assessed as increase in ELOVL3 mRNA expression at 4 uM pretreated with compound for 9 hr followed by CL-316243 induction and measured after 8 hrs by qRT-PCR analysis. The data set is classed as functional, cell-based. The note with it: time 17.0 hrs.
In data set [17] the test system is Adipocyte. Briefly: Potentiation of CL-316243-stimulated mouse Brown adipocyte activation assessed as increase in ELVOL6 mRNA expression at 4 uM pretreated with compound for 9 hr followed by CL-316243 induction and measured after 8 hrs by qRT-PCR analysis. As to conditions: time 17.0 hrs. The data set is classed as functional, cell-based.
The subject of data set [18] is Adipocyte. In words: Potentiation of CL-316243-stimulated mouse Brown adipocyte activation assessed as increase in PPARA mRNA expression at 4 uM pretreated with compound for 9 hr followed by CL-316243 induction and measured after 8 hrs by qRT-PCR analysis. It is filed as functional, cell-based. The note with it: time 17.0 hrs.
The subject of data set [19] is Adipocyte. In words: Potentiation of CL-316243-stimulated mouse Brown adipocyte activation assessed as increase in CPT1a mRNA expression at 4 uM pretreated with compound for 9 hr followed by CL-316243 induction and measured after 8 hrs by qRT-PCR analysis. The data set is classed as functional, cell-based. The note with it: time 17.0 hrs.
Data set [20] relates to Adipocyte. Briefly: Potentiation of CL-316243-stimulated mouse Brown adipocyte activation assessed as increase in CTP1B mRNA expression at 4 uM pretreated with compound for 9 hr followed by CL-316243 induction and measured after 8 hrs by qRT-PCR analysis. The data set is classed as functional, cell-based. As to conditions: time 17.0 hrs.
Data set [21] deals with Adipocyte. Briefly: Potentiation of CL-316243-stimulated mouse Brown adipocyte activation assessed as increase in CPT2 mRNA expression at 4 uM pretreated with compound for 9 hr followed by CL-316243 induction and measured after 8 hrs by qRT-PCR analysis. As to conditions: time 17.0 hrs. It is filed as functional, cell-based.
Data set [22] relates to Adipocyte. Briefly: Potentiation of CL-316243-stimulated mouse Brown adipocyte activation assessed as increase in FGF21 mRNA expression at 4 uM pretreated with compound for 9 hr followed by CL-316243 induction and measured after 8 hrs by qRT-PCR analysis. The data set is classed as functional, cell-based. As to conditions: time 17.0 hrs.

Usually inhibition stands for the relative decrease from the control value, in per cent. Regarding `COc1c(C)c(O)c2c(=O)c(OC)c(-c3ccc(O)cc3)oc2c1OC`, the Activity result in data set [1] is “Non-Toxic”; in data set [2] it was “Non-Toxic”; in [4], 50.3%; in data set [5], 50.3%; in data set [6] it was 50.3%; in data set [7], 50.3%. The Activity was found to be 31.93% in [8] and 24.18% in data set [13]. For the same molecule, the inhibition at 4 µM in [3] stood at 54.8%. The result in the data set with Adipocyte [9], in the data set with Adipocyte [10], in the data set on Adipocyte [14], in the data set on Adipocyte [15], in the data set on Adipocyte [16] and with Adipocyte [17] was inactive. The result in the data set on Adipocyte [18], in the data set on Adipocyte [19], in the data set with Adipocyte [20], with Adipocyte [21] and with Adipocyte [22] was inactive. The result in the data set with Adipocyte [11] and in the data set on Adipocyte [12] was Active.
